Laboratory results reported in patent publication US20240294504A1, “COMPOUNDS, COMPOSITIONS, AND METHODS FOR INDUCING ANTIMICROBIAL INTRACELLULAR ACTIVITY AND FOR PREVENTING AND TREATING MICROBIAL INFECTIONS” (The Broad Institute, Inc., priority 2021, published 2024).
“And” between values parts separate entries of the source, which are not always exact repeats. Equal entries are not always repeated. “Also recorded” adds a separate entry of the source. Where two headings read alike, the source gives them in different places.

Assays:
[1] = system: intracellular K. pneumoniae; assay: Intracellular survival of K. pneumoniae (RB120) in bladder epithelial cells (gentamicin protection assay, CFUs from plated cell lysates); type: cell-based, Klebsiella pneumoniae; conditions: for EC50: 24 hours of treatment, bladder epithelial cells, read-out: EC50 of dose-dependent killing / antimicrobial activity against intracellular K. pneumoniae
[2] = system: extracellular K. pneumoniae; type: cell-based, Klebsiella pneumoniae
[3] = system: SARS-COV-2; assay: SARS-COV-2 infection of veroE6 kidney epithelial cells (immunofluorescence microscopy); type: cell-based
[4] = system: interferon beta response; assay: Interferon beta response in infected bladder epithelial cells; type: cell-based, human; set-up: dose or concentration left out as unconfirmed; conditions: 24 hours (24 to 48 hours post infection)
Experimental: FIG. 7. […] Infected cells were treated for 24 hours with […] (S)-crizotinib, AY9944 or DMSO control from 24 to 48 hours post infection.

[5] = system: post-lanosterol cholesterol biosynthesis pathway; assay: LC-MS based lipidomics of sterol intermediates in host cells; type: cell-based, human; conditions: 10 μM
Experimental: FIGS. 17A-17C. LC-MS based lipidomics evaluation of effect of other available post-lanosterol cholesterol biosynthesis inhibitors on infection. (FIG. 17A) Post-lanosterol pathway. (FIG. 17B) Effect of 10 μM AY9944 or 10 μM (S)-crizotinib after 2 hours of treatment (FIG. 17C) or after 24 hours of treatment.

[6] = system: bladder epithelial cells
[7] = system: intracellular carbapenem-tolerant K. pneumoniae; conditions: primary screen 5 μM, retest 2.5 to 20 μM
Experimental: Bladder epithelial cells were infected with lux-expressing K. pneumoniae and incubated with the carbapenem antibiotic meropenem (see FIG. 1A), after killing extracellular bacteria with a high dose of gentamicin shortly after the infection. Intracellular survival was assessed by determining the luminescence intensity of intracellular bacteria that had been liberated by host cell lysis and outgrown in LB medium for 7 hours. […] Mean and SD of Z-factors of n=32 plates from 4 batches (independent outgrowth events) shown. […] Partial hits and hits involving known antibiotics were excluded. Hits from the primary screen were retested in a secondary screen at different concentration.

[8] = system: intracellular Salmonella Typhimurium; assay: Intracellular survival of Salmonella Typhimurium in host cells; type: cell-based
[9] = system: K. pneumoniae ST258 expressing mNeon (UCI_38DwbaP_mNeon); assay: Confocal microscopy of fluorescent Klebsiella-containing vacuoles (LAMP1) in bladder epithelial cells; type: cell-based, Klebsiella pneumoniae; conditions: 10 μM, 24 hours (24 to 48 hours post infection)
[10] = system: uropathogenic Escherichia coli (UPEC, UTI89); assay: Intracellular survival of UPEC in bladder epithelial cells; type: cell-based; conditions: 10 μM, 4 hours
[11] = system: Pseudomonas aeruginosa (PAO1); assay: Intracellular survival of P. aeruginosa in bladder epithelial cells; type: cell-based; conditions: 10 μM, 24 hours
[12] = system: intracellular K. pneumoniae; assay: Intracellular survival of K. pneumoniae in human lung epithelial cell line A549; type: cell-based, Klebsiella pneumoniae; conditions: 10 μM, over 2 hours
[13] = system: cancer cells; conditions: cited from earlier work
[14] = system: tumor growth; conditions: mouse, in vivo; cited from earlier work
[15] = system: Gram-positive bacteria; conditions: cited from earlier work
[16] = Klebsiella pneumoniae, Epithelial cell
[17] = 24 h treatment of infected bladder cells
[18] = 10 μM, after 24 hours of treatment

## Clc1ccccc1CNCC1CCC(CNCc2ccccc2Cl)CC1 (centres unmarked) [AY 9944]
[1]; 10 uM, 60 minutes
  killed % of the intracellular population in 60 minutes: approx. 80%
[1]; [16]
  EC50: 0.94 µM
[2]
  antibacterial activity against K. pneumoniae grown in axenic medium: no host cell toxicity or antimicrobial activity in axenic medium
[3]; Severe acute respiratory syndrome coronavirus 2, Vero C1008, read-out: EC50 of antiviral activity in SARS-COV-2 infections
  EC50: 1 µM
[4]
  interferon beta response in bladder epithelial cells infected with K. pneumoniae: do not induce an interferon beta response
[5]; 2 hour treatment
  FF-MAS, fold increased: 4.2 fold
  dehydrodesmosterol, fold increased: 1.2 fold
  lanosterol, fold increased: 1.2 fold
[5]; 24 hour treatment
  FF-MAS, fold increased: 11.9 fold
  dehydrodesmosterol, fold increased: 2.9 fold
  lanosterol, fold increased: 3 fold
[6]; [17]
  host cell cytotoxicity against bladder epithelial cells: no host cell toxicity
[7]
  outcome in high-throughput screen: hit

## C[C@@H](O)[C@H]1C(=O)N2C(C(=O)O)=C(S[C@@H]3CN[C@H](C(=O)N(C)C)C3)[C@H](C)[C@H]12 [meropenem]
[1]; meropenem 10 μg/ml (150 fold of MIC), 20 hours
  impact on the viability of intracellular K. pneumoniae: no impact; also recorded: ineffective
[8]; meropenem 10 μg/ml, after 20 hours of treatment
  killed % of intracellular Salmonella Typhimurium population: 87%

## C[C@H](Oc1cc(-c2cnn(C3CCNCC3)c2)cnc1N)c1c(Cl)ccc(F)c1Cl [(S)-crizotinib]
[1]; 10 μM, 15 minutes
  killing % of the intracellular population within 15 minutes: 82% and 80%
[1]; 10 μM, 2 hours
  % of the intracellular population killed after 2 hours of treatment: 99%
[1]; 10 μM, 2 hours, presence vs absence of gentamicin
  effect of removal of gentamicin from the culture medium on antibacterial activity: had no impact on the potent antibacterial activity
[1]; [18]
  killing % of the intracellular K. pneumoniae population: 99%
[1]; 4 mg/ml ciprofloxacin for 14 hours, then (S)-crizotinib for 6 hours in the presence of ciprofloxacin
  activity against intracellular ciprofloxacin-tolerant K. pneumoniae persisters: dose-dependent antibacterial activity
[1]; 2 hours, absence of gentamicin, supernatants
  increase of extracellular bacteria (exocytosis of Klebsiella-containing compartments): did not result in a significant increase of extracellular bacteria
[1]
  EC50: 1.7 µM
[8]; HeLa epithelial cells, 10 μM, 20 hours (4 to 24 hours post infection)
  antibacterial activity in cells infected with Salmonella Typhimurium: antibacterial activity
[2]
  antibacterial activity against K. pneumoniae grown in axenic medium: did not display antibacterial activity
[9]
  reduction in the median fluorescence intensity of mNeon-expressing Klebsiella in LAMP1 containing compartments: 33%
  reduction of detected Klebsiella containing compartments: 63%
[10]
  antibacterial activity in bladder epithelial cells infected with UPEC: antibacterial activity
[11]
  antibacterial activity in bladder epithelial cells infected with Pseudomonas aeruginosa: antibacterial activity
[12]
  antiinfective activity against intracellular K. pneumoniae in A549 lung epithelial cells: rapid antiinfective activity
[3]; veroE6, MOI 0.1, 24 h treatment
  antiviral activity in epithelial cells infected with SARS-COV-2: induced antiviral activity in epithelial cells infected with SARS-COV-2 in a dose dependent manner
[4]
  interferon beta response in bladder epithelial cells infected with K. pneumoniae: do not induce an interferon beta response
[6]
  host cell cytotoxicity against bladder epithelial cells: did not display cytotoxicity
[13]
  inhibits colony formation of cancer cells: low micromolar concentrations
[14]
  tumor growth in mice: suppress tumor growth in mice
[7]
  outcome in high-throughput screen: top hits

## C[C@@H](Oc1cc(-c2cnn(C3CCNCC3)c2)cnc1N)c1c(Cl)ccc(F)c1Cl [crizotinib]
[15]
  concentration for growth inhibition of Gram-positive bacteria: > 20 µM

## CC(C)Cn1cnc2c(N)nc3ccccc3c21 [imiquimod]
[1]; after 24 hours of treatment
  anti-infective / antimicrobial activity of TLR7 agonist: moderate anti-infective activity; also recorded: Modest antimicrobial activity

## CNc1cc(-c2cccc(Cl)c2Cl)nc(N)n1 [TH287]
[1]; 10 μM
  intracellular antibacterial activity after 4 hours of treatment: did not display intracellular antibacterial activity
  intracellular antibacterial activity after 24 hours of treatment: modest antibacterial activity
[6]; [17]
  host cell cytotoxicity against bladder epithelial cells: dose dependent toxicity

## Nc1nc(NC2CC2)cc(-c2cccc(Cl)c2Cl)n1 [TH588]
[1]; 10 μM
  intracellular antibacterial activity after 4 hours of treatment: did not display intracellular antibacterial activity; also recorded: did not induce intracellular antibacterial activity
  intracellular antibacterial activity after 24 hours of treatment: modest antibacterial activity
[6]; [17]
  host cell cytotoxicity against bladder epithelial cells: dose dependent toxicity

## C[C@@H](Oc1cc(-c2cnn(C3CCNCC3)c2)cnc1N)c1c(Cl)ccc(F)c1Cl [(R)-crizotinib]
[1]; [18]
  killing % of the intracellular K. pneumoniae population: 99%
[1]; [16]
  EC50: 1.1 µM
[6]
  host cell cytotoxicity against bladder epithelial cells: displayed host cell cytotoxicity in a dose-dependent manner
[7]
  outcome in high-throughput screen: top hits
